This is an account of results in US20250215101A1, “DR5 Agonist and PLK1 Inhibitor or CDK Inhibitor Combination Therapy” (Inhibrx Biosciences, Inc., priority 2022, published 2025).

One data set relates to SW620. The data set is described as follows: Cell viability (CellTiter-Glo) cytotoxicity assay, INBRX-109 x CDK9 or MCL-1 inhibitor matrix, 48 h, colorectal cancer line. Background: Cellular ATP, detected with luciferase, serves as a proxy for viable cell number.
The subject of data set [1] is CAL-78, OUMS-27, SW1353, H-EMC-SS, SW620, HS-SY-II. The data set is described as follows: Cytotoxicity screens INBRX-109 + CDK9 or MCL-1 inhibitor, summary over the cell lines. The class given is cell-based. To be noted: combination with INBRX-109. The text has this: Data was graphed in GraphPad Prism 9.
For another data set, the system named is OUMS-27. The data set is described as follows: Cell viability (CellTiter-Glo) cytotoxicity assay, INBRX-109 x CDK9 or MCL-1 inhibitor matrix, 48 h, chondrosarcoma line.
The test system of a further data set is HS-SY-II. Put plainly: Cell viability (CellTiter-Glo) cytotoxicity assay, INBRX-109 x CDK9 or MCL-1 inhibitor matrix, 48 h, synovial sarcoma line.
The next data set deals with SW1353. Put plainly: Cell viability (CellTiter-Glo) cytotoxicity assay, INBRX-109 x CDK9 or MCL-1 inhibitor matrix, 48 h, chondrosarcoma line.
The subject of a further data set is H-EMC-SS. The data set is described as above.
The next data set concerns CAL-78. The description is as above.
The target in another data set is CDK9 (Homo sapiens, UniProt P50750). The following applies: cited from earlier work.
Chain of CDK9 (P50750 whole entry): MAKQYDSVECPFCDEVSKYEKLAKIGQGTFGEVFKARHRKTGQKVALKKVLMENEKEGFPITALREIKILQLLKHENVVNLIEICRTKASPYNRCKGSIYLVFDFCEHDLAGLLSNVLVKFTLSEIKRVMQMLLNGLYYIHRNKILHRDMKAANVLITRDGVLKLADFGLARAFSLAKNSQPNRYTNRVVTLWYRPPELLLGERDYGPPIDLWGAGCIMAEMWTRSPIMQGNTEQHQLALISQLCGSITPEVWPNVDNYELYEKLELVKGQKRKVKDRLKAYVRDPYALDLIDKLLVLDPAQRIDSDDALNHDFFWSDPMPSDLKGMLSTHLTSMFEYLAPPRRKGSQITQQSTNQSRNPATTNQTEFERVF
Chain of CDK9 (O60563 whole entry partner): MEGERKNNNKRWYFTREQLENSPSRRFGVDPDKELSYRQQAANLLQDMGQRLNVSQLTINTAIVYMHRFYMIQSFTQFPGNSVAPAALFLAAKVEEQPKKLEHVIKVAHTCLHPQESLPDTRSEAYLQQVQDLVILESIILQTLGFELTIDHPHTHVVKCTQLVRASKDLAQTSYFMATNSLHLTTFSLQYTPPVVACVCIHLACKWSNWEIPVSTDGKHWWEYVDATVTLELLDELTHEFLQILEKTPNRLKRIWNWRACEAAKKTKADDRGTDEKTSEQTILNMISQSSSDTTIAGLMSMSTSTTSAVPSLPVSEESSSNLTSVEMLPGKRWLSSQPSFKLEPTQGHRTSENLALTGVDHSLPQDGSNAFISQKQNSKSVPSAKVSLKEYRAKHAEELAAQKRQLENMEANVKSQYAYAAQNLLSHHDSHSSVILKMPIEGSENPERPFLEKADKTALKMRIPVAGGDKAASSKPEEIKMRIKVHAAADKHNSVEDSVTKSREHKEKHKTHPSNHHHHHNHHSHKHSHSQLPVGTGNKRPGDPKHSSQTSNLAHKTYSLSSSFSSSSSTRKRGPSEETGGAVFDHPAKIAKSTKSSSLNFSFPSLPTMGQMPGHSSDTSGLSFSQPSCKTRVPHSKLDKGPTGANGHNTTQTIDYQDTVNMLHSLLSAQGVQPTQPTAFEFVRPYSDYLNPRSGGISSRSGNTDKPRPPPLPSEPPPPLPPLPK
[2] abbreviates: concentrations of 125 nM or higher.

One may read the EC50 as the concentration that produces a half-maximal response. In the case of `COc1cc(F)ccc1-c1cc(Nc2cc(CS(C)(=N)=O)ccn2)ncc1F` (centres unmarked) [Enitociclib], the EC50 in the data set on SW620 (enitociclib + 1 nM INBRX-109) is 39.3 nM; with SW620 (enitociclib only), 25.8 nM; in the data set with OUMS-27 (enitociclib + 1 nM INBRX-109), 90.4 nM; in the data set with OUMS-27 (enitociclib only), 51 nM; in the data set with HS-SY-II (enitociclib + 1 nM INBRX-109), 89.1 nM; in the data set on HS-SY-II (enitociclib only), 74 nM. Besides, the EC50 with SW1353 (enitociclib + 1 nM INBRX-109) is 103 nM; with SW1353 (enitociclib only) it was 102 nM; with H-EMC-SS (enitociclib + 1 nM INBRX-109), 114 nM; in the data set with H-EMC-SS (enitociclib only), 124 nM; in the data set on CAL-78 (enitociclib + 1 nM INBRX-109) it was 108 nM; in the data set on CAL-78 (enitociclib only), 144 nM. The “Max Cytotox” value with SW620 (enitociclib + 1 nM INBRX-109) came out at 97.6%; in the data set with OUMS-27 (enitociclib + 1 nM INBRX-109), 81%; with HS-SY-II (enitociclib + 1 nM INBRX-109), 94%; in the data set with SW1353 (enitociclib + 1 nM INBRX-109) it was 64.6%; in the data set on H-EMC-SS (enitociclib + 1 nM INBRX-109) it was 99.2%; in the data set with CAL-78 (enitociclib + 1 nM INBRX-109) it was 90.8%. The “Max Cytotox at 125 nM” value in the data set with SW620 (enitociclib only) stood at 27.3%; in the data set with OUMS-27 (enitociclib only), 25.6%; with HS-SY-II (enitociclib only), 73.2%; in the data set on SW1353 (enitociclib only), 28.0%; with H-EMC-SS (enitociclib only), 15.8%; with CAL-78 (enitociclib only) it was 10.9%. In data set [1], the “cell killing by the combination” value is “increased cell killing on nearly every cancer cell line tested”. In addition, the “combination effect (shift in the killing curves of INBRX-109)” value in data set [1] (setting [2]) is on record as “synergistic effect”.

Turning to `CN1CC[C@H](c2c(O)cc(O)c3c(=O)cc(-c4ccccc4Cl)oc23)[C@H](O)C1` [Flavopiridol], the EC50 in the data set with SW620 (flavopiridol + 1 nM INBRX-109) is 50.2 nM; in the data set with SW620 (flavopiridol only) it was “Unstable”; in the data set on OUMS-27 (flavopiridol + 1 nM INBRX-109) it was 118 nM; with OUMS-27 (flavopiridol only), 109 nM; in the data set on HS-SY-II (flavopiridol + 1 nM INBRX-109) it was 103 nM; with HS-SY-II (flavopiridol only) it was 108 nM. For the same molecule, the EC50 in the data set on SW1353 (flavopiridol + 1 nM INBRX-109) is 133 nM; in the data set with SW1353 (flavopiridol only) it was 202 nM; in the data set with H-EMC-SS (flavopiridol + 1 nM INBRX-109), 53.9 nM; with H-EMC-SS (flavopiridol only), 114 nM; in the data set with CAL-78 (flavopiridol + 1 nM INBRX-109), 115 nM; in the data set on CAL-78 (flavopiridol only), 146 nM. Besides, the “Max Cytotox” value worked out at 98.7% in the data set on SW620 (flavopiridol + 1 nM INBRX-109); 87.8% in the data set with OUMS-27 (flavopiridol + 1 nM INBRX-109); 95.1% in the data set on HS-SY-II (flavopiridol + 1 nM INBRX-109); 88.3% in the data set with SW1353 (flavopiridol + 1 nM INBRX-109); 99% with H-EMC-SS (flavopiridol + 1 nM INBRX-109). In addition, the “Max Cytotox at 125 nM” value was 21.7% in the data set with SW620 (flavopiridol only); 24.0% in the data set on OUMS-27 (flavopiridol only); 55.8% with HS-SY-II (flavopiridol only); 21.7% in the data set on SW1353 (flavopiridol only); 21.9% with H-EMC-SS (flavopiridol only); 10.9% in the data set with CAL-78 (flavopiridol only). Besides, in data set [1], the “cell killing by the combination” value is listed as “increased cell killing on nearly every cancer cell line tested”. Moreover, the “combination effect (shift in the killing curves of INBRX-109)” value in data set [1] (setting [2]) is reported as “synergistic effect”.

As to `COC[C@@H](C)N[C@H]1CC[C@H](Nc2cc(-c3cccc(NCC4(C#N)CCOCC4)n3)c(Cl)cn2)CC1` [NVP-2], the 50% effective concentration (EC50) in the data set on SW620 (NVP-2 + 1 nM INBRX-109) came to 4.91 nM; in the data set on SW620 (NVP-2 only), 12.6 nM; with OUMS-27 (NVP-2 + 1 nM INBRX-109), 16.3 nM; in the data set with OUMS-27 (NVP-2 only), 9 nM; in the data set on SW1353 (NVP-2 + 1 nM INBRX-109) it was 22.3 nM; in the data set on SW1353 (NVP-2 only), 30.6 nM. The EC50 in the data set with H-EMC-SS (NVP-2 + 1 nM INBRX-109) is 24.5 nM; with H-EMC-SS (NVP-2 only), 23.5 nM; in the data set on CAL-78 (NVP-2 + 1 nM INBRX-109) it was 26.4 nM; in the data set with CAL-78 (NVP-2 only) it was 23.2 nM. Moreover, the “Max Cytotox” value with SW620 (NVP-2 + 1 nM INBRX-109) worked out at 98.7%; with OUMS-27 (NVP-2 + 1 nM INBRX-109), 88.5%; in the data set with SW1353 (NVP-2 + 1 nM INBRX-109), 79.5%; in the data set on H-EMC-SS (NVP-2 + 1 nM INBRX-109), 98.7%; in the data set on CAL-78 (NVP-2 + 1 nM INBRX-109), 92.4%. The “Max Cytotox at 125 nM” value in the data set with SW620 (NVP-2 only) is 39.5%; in the data set on OUMS-27 (NVP-2 only), 20.4%; in the data set on SW1353 (NVP-2 only), 52.8%; in the data set with H-EMC-SS (NVP-2 only), 46.4%; in the data set on CAL-78 (NVP-2 only), 42.2%. The “cell killing by the combination” value in data set [1] was “increased cell killing on nearly every cancer cell line tested”. Moreover, the “combination effect (shift in the killing curves of INBRX-109)” value in data set [1] (concentrations higher than 25 nM) was “synergistic effect”.

On to `N[C@H]1CC[C@H](Nc2cc(-c3cccc(NCc4cccc(F)c4)n3)c(Cl)cn2)CC1` [i-CDK9], for which the “selectivity for CDK9 over other CDKs” value at CDK9 is reported as 600 fold.
